Source: ChEMBL document CHEMBL1137415, “Structure-activity relationship of 6-methylidene penems bearing 6,5 bicyclic heterocycles as broad-spectrum beta-lactamase inhibitors: evidence for 1,4-thiazepine intermediates with C7 R stereochemistry by computational methods” (J Med Chem, 2006)
≈ marks a conversion by molar mass, not a printed value.

Experiments:
[1] = target: Beta-lactamase (Enterobacter cloacae, UniProt P05364)
Description: Inhibition of Enterobacter cloacae AmpC

[2] = system: Enterobacter cloacae; test: Antibacterial activity against Enterobacter cloacae expressing P99; assay type: functional
[3] = system: Pseudomonas aeruginosa; test: Antibacterial activity against Pseudomonas aeruginosa expressing AmpC; assay type: functional
[4] = system: Escherichia coli; test: Antibacterial activity against Escherichia coli expressing TEM1 in iv dosed murine acute lethal infection model in presence of piperacillin; assay type: functional
[5] = target: Beta-lactamase TEM (Escherichia coli) (UniProt P62593); test: Antibacterial activity against Escherichia coli expressing TEM1; assay type: functional
[6] = target: T1, Imipenem-hydrolyzing beta-lactamase (Enterobacter cloacae, UniProt P52663); test: Inhibition of Enterobacter cloacae Imi1
T1 sequence (P52663 whole entry): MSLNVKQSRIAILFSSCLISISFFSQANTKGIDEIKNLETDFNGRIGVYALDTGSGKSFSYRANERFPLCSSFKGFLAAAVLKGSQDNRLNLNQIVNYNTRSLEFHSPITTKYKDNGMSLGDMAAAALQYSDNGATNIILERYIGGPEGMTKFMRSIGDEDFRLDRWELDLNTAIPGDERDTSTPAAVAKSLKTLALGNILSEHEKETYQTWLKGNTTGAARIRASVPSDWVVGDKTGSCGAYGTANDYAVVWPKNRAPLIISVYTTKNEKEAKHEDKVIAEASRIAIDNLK

[7] = system: Klebsiella aerogenes; test: Antibacterial activity against Enterobacter aerogenes expressing AmpC in iv dosed murine acute lethal infection model in presence of piperacillin; assay type: functional
[8] = system: Serratia marcescens; test: Antibacterial activity against Serratia marcescens expressing AmpC and Smel; assay type: functional
[9] = target: Beta-lactamase TEM (Escherichia coli, UniProt P62593); test: Inhibition of Escherichia coli TEM1
[10] = target: Metallo-beta-lactamase type 2 (Bacteroides fragilis, UniProt P25910); test: Inhibition of Bacteroides fragilis CcrA
[11] = system: Escherichia coli; test: Antibacterial activity against Escherichia coli expressing TEM1 in iv dosed murine acute lethal infection model; assay type: functional
[12] = system: Klebsiella aerogenes; test: Antibacterial activity against Enterobacter aerogenes expressing AmpC in iv dosed murine acute lethal infection model; assay type: functional
[13] = Inhibition of GC1
[14] = Inhibition of SHV1

Chain of Beta-lactamase (P05364 whole entry): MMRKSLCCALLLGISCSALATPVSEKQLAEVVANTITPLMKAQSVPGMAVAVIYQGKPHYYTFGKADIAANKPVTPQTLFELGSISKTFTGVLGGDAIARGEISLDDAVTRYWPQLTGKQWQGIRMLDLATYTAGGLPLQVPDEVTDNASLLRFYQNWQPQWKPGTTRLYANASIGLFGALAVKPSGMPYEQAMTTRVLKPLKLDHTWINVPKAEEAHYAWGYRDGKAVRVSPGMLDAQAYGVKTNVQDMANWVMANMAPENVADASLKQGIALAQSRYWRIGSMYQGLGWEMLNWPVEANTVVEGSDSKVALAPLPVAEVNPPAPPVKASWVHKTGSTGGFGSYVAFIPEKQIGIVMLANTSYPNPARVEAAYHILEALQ
Chain of Beta-lactamase TEM (Escherichia coli) (P62593 whole entry): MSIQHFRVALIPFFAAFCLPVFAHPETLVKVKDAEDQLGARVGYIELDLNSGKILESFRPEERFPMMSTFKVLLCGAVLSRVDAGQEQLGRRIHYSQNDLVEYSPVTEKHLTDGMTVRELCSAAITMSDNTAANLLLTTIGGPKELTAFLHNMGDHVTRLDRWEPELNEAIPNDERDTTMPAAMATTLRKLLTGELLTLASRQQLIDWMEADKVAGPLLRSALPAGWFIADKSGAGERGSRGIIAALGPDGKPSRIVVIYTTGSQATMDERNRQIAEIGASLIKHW
Chain of Beta-lactamase TEM (P62593 whole entry): as above
Chain of Metallo-beta-lactamase type 2 (P25910 whole entry): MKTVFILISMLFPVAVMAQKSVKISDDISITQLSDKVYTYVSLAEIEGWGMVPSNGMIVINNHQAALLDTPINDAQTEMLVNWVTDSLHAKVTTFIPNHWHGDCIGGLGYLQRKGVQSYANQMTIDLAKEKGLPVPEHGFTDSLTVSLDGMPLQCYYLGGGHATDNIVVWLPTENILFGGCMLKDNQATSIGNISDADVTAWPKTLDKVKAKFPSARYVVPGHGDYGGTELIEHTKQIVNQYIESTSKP

Structure (SMILES) | IC50 [1] [nM] | MIC [2] [µg/mL] | MIC [3] [µg/mL] | ED50 [4] [mg/kg] | MIC [5] [µg/mL] | IC50 [6] [nM] | ED50 [7] [mg/kg] | MIC [8] [µg/mL] | IC50 [9] [nM] | IC50 [10] [nM] | ED50 [11] [mg/kg] | ED50 [12] [mg/kg] | IC50 [13] [nM] | IC50 [14] [nM]
O=C([O-])C1=CS[C@@H]2/C(=C\c3cc4n(n3)CCSC4)C(=O)N12.[Na+] | 1 | 8 | 2 | 31 | 4 | 18 | 123 | 0.5 |  |  |  |  |  | 
COc1ccc(CN2CCc3sc(/C=C4/C(=O)N5C(C(=O)[O-])=CS[C@H]45)cc3C2)cc1.[Na+] | 15 | 32 | 32 |  | 8 | 27 |  | 1 | 2 | 78 |  |  |  | 
O=C([O-])C1=CS[C@@H]2/C(=C\c3cc4n(n3)CCOC4)C(=O)N12.[Na+] | 6 | 8 | 2 | 19 | 4 | 20 |  | 1 | 4 |  |  |  |  | 
O=C([O-])C1=CS[C@@H]2/C(=C/c3cn4c(n3)CNCC4)C(=O)N12.[Na+] | 6 | 2 | 16 | 27 | 2 | 28 |  | 1 | 5 | 320 |  |  |  | 
O=C([O-])C1=CS[C@@H]2/C(=C\c3cc4c(s3)CCN(Cc3cccnc3)C4)C(=O)N12.[Na+] |  | 64 | 64 |  | 32 | 40 |  | 1 | 10 |  |  |  |  | 
CN1CCn2cc(/C=C3/C(=O)N4C(C(=O)[O-])=CS[C@H]34)nc2C1.[Na+] | 6 | 1 | 4 |  | 16 | 22 |  | 1 | 4 |  |  |  |  | 
O=C([O-])C1=CS[C@@H]2/C(=C\c3cc4n(n3)CCCO4)C(=O)N12.[Na+] | 5 | 4 | 1 | 90 | 4 | 413 |  | 1 | 6 | 140 |  |  |  | 
O=C([O-])C1=CS[C@@H]2/C(=C/c3cn4c(n3)CSCC4)C(=O)N12.[Na+] | 420 | 32 | 64 |  | 64 | > 10000 |  | 4 | 730 | 110 |  |  |  | 
O=C([O-])C1=CS[C@@H]2/C(=C\c3cc4n(n3)CCNC4)C(=O)N12.[Na+] | 3 | 16 | 0.5 | 30 | 4 | 123 |  | 1 | 1 |  |  |  |  | 
O=C([O-])C1=CS[C@@H]2/C(=C\c3cc4n(n3)CCCC4)C(=O)N12.[Na+] | 3 | 4 | 4 | 28 | 2 | 90 | 86 | 1 | 2 |  |  |  |  | 
C[C@]1(Cn2ccnn2)[C@H](C(=O)O)N2C(=O)C[C@H]2S1(=O)=O [TAZOBACTAM] |  | 64 (≈ 213 µM) | 64 (≈ 213 µM) |  | 2 (≈ 6.66 µM) |  |  | 1 (≈ 3.33 µM) |  |  |  |  |  | 
CCN1CCN(C(=O)NC(C(=O)N[C@@H]2C(=O)N3C2SC(C)(C)[C@@H]3C(=O)O)c2ccccc2)C(=O)C1=O (single isomer, unassigned) [PIPERACILLIN] |  |  |  |  |  |  |  |  |  |  | 165 | 421 |  | 
O=C([O-])C1=CS[C@@H]2/C(=C\c3cn4c(n3)CSCC4)C(=O)N12.[Na+] | 2 | 8 | 8 |  | 8 | 2300 |  | 8 | 3 | 8 |  |  |  | 
O=C([O-])C1=CS[C@@H]2/C(=C/c3cn4c(n3)COCC4)C(=O)N12.[Na+] | 5 | 8 | 1 | 23 | 2 | 8 | 96 | 1 | 0.4 | 66 |  |  | 6.2 | 9
O=C([O-])C1=CS[C@@H]2/C(=C\c3cc4n(n3)CCS(=O)(=O)C4)C(=O)N12.[Na+] | 2 | 16 | 2 | 64 | 4 | 56 |  | 1 | 1 | 43 |  |  |  | 
